Experimental data taken from US8642585B2, “Indanyloxydihydrobenzofuranylacetic acids” (Boehringer Ingelheim International GmbH, priority 2012, dated 2014).

Target: human GPR40 receptor (Homo sapiens, UniProt O14842)
Experiment: Assay II: IP1 accumulation (IPOne HTRF) in 1321N1 cells stably expressing human GPR40
Assay type: cell-based
Details: 1321N1 cells expressing human GPR40, stimulation 1 h at 37° C., 5% CO2, LiCl 50 mM
Experimental: IP1 accumulation measurements using the IPOne assay system—1321N1 cells stably expressing human GPR40 receptor (Euroscreen, Belgium) are seeded 24 h before the assay in white 384-well plates in culture medium containing 10% FCS, 1% Na-Pyruvate and 400 μg/mL G418. IP1 is assayed according to the manufacturers description (Cisbio Bioassays, France). In brief, the assay is started by substitution of the culture medium by stimulation buffer (Hepes 10 mM, CaCl2 1 mM, MgCl2 0.5 mM, KCl 4.2 mM, NaCl 146 mM, glucose 5.5 mM and LiCl 50 mM, pH 7.4). Cells are stimulated for 1 h at 37° C., 5% CO2 by addition of the compounds that are diluted in stimulation buffer containing LiCl. Assays are stopped by adding HTRF-conjugates (IP1-d2 and Anti-IP1 cryptate Tb) and lysis buffer, provided by the manufacturer. After an incubation time of 1 h at room temperature plates are measured using an EnVision™, Perkin Elmer. The obtained fluorescence ratios at 665/615 nM are then used to calculate the pEC50 values using Assay Explorer 3.3 Software (Accelrys, Inc.) by interpolation using an IP1 reference curve and subsequent sigmoidal curve fitting allowing for a variable hill slope.

Sequence of human GPR40 receptor (O14842 whole entry): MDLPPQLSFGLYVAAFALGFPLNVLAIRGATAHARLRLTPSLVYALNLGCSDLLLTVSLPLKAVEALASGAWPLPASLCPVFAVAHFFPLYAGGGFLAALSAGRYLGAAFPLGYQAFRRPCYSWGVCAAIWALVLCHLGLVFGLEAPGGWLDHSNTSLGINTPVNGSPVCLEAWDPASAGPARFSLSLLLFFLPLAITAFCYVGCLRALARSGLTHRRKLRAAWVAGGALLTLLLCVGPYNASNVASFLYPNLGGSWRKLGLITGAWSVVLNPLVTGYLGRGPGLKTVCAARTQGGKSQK

Row | SMILES | EC50
1 | CC(=O)NCCOc1cc(C)c(-c2ccc(F)c3c2CC[C@H]3Oc2ccc3c(c2)OC[C@H]3CC(=O)O)c(C)c1 [Example 73, 2-((S)-6-((R)-4-(4-(2-Acetamidoethoxy)-2,6-dimethylphenyl)-7-fluoro-2,3-dihydro-1H-inden-1-yloxy)-2,3-dihydrobenzofuran-3-yl)acetic acid] | 13 nM
2 | Cc1cc(CCNS(C)(=O)=O)cc(C)c1-c1ccc(F)c2c1CC[C@H]2Oc1ccc2c(c1)OC[C@H]2CC(=O)O [Example 74, 2-((S)-6-((R)-4-(2,6-dimethyl-4-(2-(methylsulfonamido)ethyl)phenyl)-7-fluoro-2,3-dihydro-1H-inden-1-yloxy)-2,3-dihydrobenzofuran-3-yl)acetic acid] | 40 nM
3 | Cc1cc(OCC2(O)CC2)cc(C)c1-c1ccc(F)c2c1CC[C@H]2Oc1ccc2c(c1)OC[C@H]2CC(=O)O [Example 75, 2-((S)-6-((R)-7-Fluoro-4-(4-((1-hydroxycyclopropyl)methoxy)-2,6-dimethylphenyl)-2,3-dihydro-1H-inden-1-yloxy)-2,3-dihydrobenzofuran-3-yl)acetic acid] | 17 nM
4 | Cc1cc(OC2CCN(C)C2=O)cc(C)c1-c1ccc(F)c2c1CC[C@H]2Oc1ccc2c(c1)OC[C@H]2CC(=O)O (stereo partly drawn) [Example 76, 2-((3S)-6-((1R)-4-(2,6-Dimethyl-4-(1-methyl-2-oxopyrrolidin-3-yloxy)phenyl)-7-fluoro-2,3-dihydro-1H-inden-1-yloxy)-2,3-dihydrobenzofuran-3-yl)acetic acid] | 27 nM
5 | Cc1cc(OCC(C)(C)CS(C)(=O)=O)cc(C)c1-c1ccc(F)c2c1CC[C@H]2Oc1ccc2c(c1)OC[C@H]2CC(=O)O [Example 77, 2-((S)-6-((R)-4-(4-(2,2-Dimethyl-3-(methylsulfonyl)propoxy)-2,6-dimethylphenyl)-7-fluoro-2,3-dihydro-1H-inden-1-yloxy)-2,3-dihydrobenzofuran-3-yl)acetic acid] | 10 nM
6 | Cc1cc(C2CCOCC2)cc(C)c1-c1ccc(F)c2c1CC[C@H]2Oc1ccc2c(c1)OC[C@H]2CC(=O)O [Example 80, 2-((S)-6-((R)-4-(2,6-Dimethyl-4-(tetrahydro-2H-pyran-4-yl)phenyl)-7-fluoro-2,3-dihydro-1H-inden-1-yloxy)-2,3-dihydrobenzofuran-3-yl)acetic acid] | 11 nM
7 | Cc1cc(C2=CC(=O)OCC2)cc(C)c1-c1ccc(F)c2c1CC[C@H]2Oc1ccc2c(c1)OC[C@H]2CC(=O)O [Example 81, 2-((S)-6-((R)-4-(2,6-Dimethyl-4-(6-oxo-3,6-dihydro-2H-pyran-4-yl)phenyl)-7-fluoro-2,3-dihydro-1H-inden-1-yloxy)-2,3-dihydrobenzofuran-3-yl)acetic acid] | 8 nM
8 | COCc1cc(OCC2(C)COC2)cc(COC)c1-c1ccc(F)c2c1CC[C@H]2Oc1ccc2c(c1)OC[C@H]2CC(=O)O [Example 82, 2-((S)-6-((R)-4-(2,6-Bis(methoxymethyl)-4-((3-methyloxetan-3-yl)methoxy)phenyl)-7-fluoro-2,3-dihydro-1H-inden-1-yloxy)-2,3-dihydrobenzofuran-3-yl)acetic acid] | 14 nM
9 | Cc1cc(-c2cnn(CC(C)(C)O)c2)cc(C)c1-c1ccc(F)c2c1CC[C@H]2Oc1ccc2c(c1)OC[C@H]2CC(=O)O [Example 83, 2-((S)-6-((R)-7-Fluoro-4-(4-(1-(2-hydroxy-2-methylpropyl)-1H-pyrazol-4-yl)-2,6-dimethylphenyl)-2,3-dihydro-1H-inden-1-yloxy)-2,3-dihydrobenzofuran-3-yl)acetic acid] | 6 nM
10 | Cc1cc(-c2ccn(C)c(=O)c2)cc(C)c1-c1ccc(F)c2c1CC[C@H]2Oc1ccc2c(c1)OC[C@H]2CC(=O)O [Example 84, 2-((S)-6-((R)-4-(2,6-Dimethyl-4-(1-methyl-2-oxo-1,2-dihydropyridin-4-yl)phenyl)-7-fluoro-2,3-dihydro-1H-inden-1-yloxy)-2,3-dihydrobenzofuran-3-yl)acetic acid] | 9 nM
